In ChEMBL document CHEMBL4402536, “Recent progress on anti-Toxoplasma drugs discovery: Design, synthesis and screening” (Eur J Med Chem, 2019):
≈ marks a conversion by molar mass, not a printed value.

Experiments:
[1] = Inhibition of Toxoplasma gondii CDPK1
[2] = tested on: Toxoplasma gondii; experiment: Antiparasitic activity against Toxoplasma gondii; assay type: functional, organism-based
[3] = Therapeutic index, ratio of TD50 in CF-1 mouse to IC50 of Toxoplasma gondii infected in human HFF cells; assay type: toxicity, cell-based; settings: read-out: TI
[4] = tested on: Toxoplasma gondii; experiment: Antiparasitic activity against Toxoplasma gondii infected in CF-1 mouse at 0.04 to 50 mg/kg, po after 48 hrs; assay type: functional
[5] = tested on: Toxoplasma gondii; experiment: Antiparasitic activity against Toxoplasma gondii infected in human HFF cells after 4 hrs by CellTiter 96Aqueous One cell viability assay; assay type: functional, organism-based
[6] = Half life of the compound; assay type: physicochemical
[7] = tested on: Toxoplasma gondii; experiment: Antiparasitic activity against Toxoplasma gondii infected in human HuH7 cells; assay type: functional, organism-based
[8] = Selectivity index, ratio of EC50 for human HFF cells to EC50 Toxoplasma gondii RH; assay type: functional
[9] = tested on: HFF; experiment: Cytotoxicity against human HFF cells assessed as reduction in cell viability; assay type: cell-based
[10] = tested on: Toxoplasma gondii; experiment: Antiparasitic activity against Toxoplasma gondii RH infected in human HFF cells in presence of […] by radio-labelled assay; assay type: functional, organism-based
[11] = tested on: Toxoplasma gondii; experiment: Antiparasitic activity against Toxoplasma gondii infected in human HFF cells after 4 hrs; assay type: functional, organism-based
[12] = tested on: Toxoplasma gondii; experiment: Antiparasitic activity against Toxoplasma gondii infected in human HFF cells after 7 days by crystal violet assay; assay type: functional, organism-based; settings: 168 h
[13] = tested on: Huh-7; experiment: Cytotoxicity against human HuH7 cells assessed as reduction in cell viability; assay type: functional, cell-based

Cc1cccc(Cc2nn(C(C)(C)C)c3ncnc(N)c23)c1
IC50 [1]: 3.99 nM | EC50 [2]: 110 nM

Cc1[nH]c2ccccc2c(=O)c1-c1ccc(Oc2ccc(OC(F)(F)F)cc2)cc1
selectivity ratio [3]: 93500 | ED50 [4]: 0.14 mg/kg | IC50 [5]: 1 nM

CCN(CC)c1ccc(C(=O)NC(=O)c2ccccc2O)cc1
IC50 [2]: 8 nM | half-life [6]: 33 min

O=C1CN(CCCCCN2CCCCC2)c2ccc([N+](=O)[O-])cc2N1
MIC50 [7]: 3.3 µM (≈ 1.14 µg/mL)

COc1cc2[nH]c(C)c(-c3ccc(Oc4ccc(OC(F)(F)F)cc4)cc3)c(=O)c2cc1F
selectivity ratio [3]: > 7.1e+06 | ED50 [4]: 0.08 mg/kg | IC50 [5]: 0.007 nM

O=c1[nH]ccc2nc(NC3CCCNC3)nc(Nc3ccc(S(=O)(=O)N4CCOCC4)cc3)c12 (centres undefined)
IC50 [2]: < 500 nM

Cc1[nH]c2cc(F)cc(F)c2c(=O)c1-c1ccc(Oc2ccc(OC(F)(F)F)cc2)cc1
EC50 [5]: 5 nM

CC[C@]1(C)NC(=O)[C@H](CCCCCC(=O)[C@@H](C)OC(C)=O)NC(=O)[C@H]2C[C@H](C)CN2C(=O)[C@H](Cc2ccccc2)NC1=O
Selectivity Index [8]: 62 | EC50 [9]: 632 nM | EC50 [10]: 10.2 nM

O=c1c2ccccc2ncn1C[C@H](O)C[C@H]1NCCC[C@@H]1O
EC50 [2]: 1900 nM

O=C(C[C@H]1NCCC[C@@H]1O)Cn1cnc2c(c1=O)CCCC2
EC50 [2]: 880 nM

C=C(C)[C@H](CC=C(C)C)C[C@]12C[C@H](CC=C(C)C)C(C)(C)[C@](CC=C(C)C)(C(=O)C(C(=O)c3ccc(O)c(O)c3)=C1O)C2=O
EC50 [10]: 1800 nM

CC(=O)[C@@H]1CC[C@]2(C)CC[C@]3(C)[C@H](CC[C@@H]4[C@@]5(C)CCC(=O)C(C)(C)[C@@H]5CC[C@]43C)[C@@H]12
IC50 [2]: 24400 nM

CC(C)(C)C1=CC(=NNc2ccc([N+](=O)[O-])cc2[N+](=O)[O-])C=C(C(C)(C)C)C1=O
IC50 [11]: 130 nM

O=C1CCCN[C@@H]1CCCn1cnc2ccccc2c1=O
EC50 [2]: 8900 nM

CC(C)n1c(/C=N/Nc2nc3ccccc3[nH]2)nc2ccccc21
IC50 [2]: 1360 nM

CC[C@]1(C)NC(=O)[C@H](CCCCCC(=O)[C@@H](C)OC(=O)Oc2ccccc2)NC(=O)[C@H]2C[C@H](C)CN2C(=O)[C@H](Cc2ccccc2)NC1=O
Selectivity Index [8]: 47.7 | EC50 [9]: 59.2 nM | EC50 [10]: 11.3 nM

C[C@H]1[C@H](C)CC[C@]2(C(=O)OCCn3cnnc3-c3ccccc3)CC[C@]3(C)C(=CC[C@@H]4[C@@]5(C)CC[C@H](O)C(C)(C)[C@@H]5CC[C@]43C)[C@H]12
IC50 [2]: 128 µg/mL

CC(C)c1n[nH]c2c(=O)[nH]c(Cc3ccccc3)nc12
IC50 [12]: 2000 nM

CC(C)(C)C1=CC(=NNC(=O)c2ccc([N+](=O)[O-])cc2)C=C(C(C)(C)C)C1=O
IC50 [11]: 200 nM

OCCCCCCC1COOC2(CCCCCCCCCCC2)OO1 (centres undefined)
IC50 [13]: 310 µg/mL (≈ 865 µM) | LC50 ([7]; Huh-7): 1.11 µg/mL (≈ 3.1 µM)

O=C1C=C/C(=N\Oc2ccc([N+](=O)[O-])cc2[N+](=O)[O-])c2cccnc21
IC50 [2]: 1340 nM

CC(C)(C)C1=CC(=NNC(=O)c2ccncc2)C=C(C(C)(C)C)C1=O
IC50 [11]: 2300 nM

CCc1ccc(C(=O)NC(=O)c2ccccc2O)cc1
IC50 [2]: 16 to 32 nM | half-life [6]: < 10 min

CCOc1ccc(/C=C/c2nc(=O)c3ccccc3o2)cc1
IC50 [11]: 270 nM

O=C1C2=C(C(=O)c3ccccc31)[C@H]1Oc3ccc(Cl)cc3[C@H]1CO2
IC50 [2]: < 1000 nM

CC(C)(C)c1cc(C2C(C#N)=C(N)OC3=C2C(=O)CCC3)cc(C(C)(C)C)c1O (centres undefined)
IC50 [11]: 1300 nM

COc1ccc(OC)c(NCc2ccc3nc(N)nc(N)c3c2Cl)c1
IC50 [2]: 20 nM

CC(=O)O[C@H]1CC[C@]2(C)[C@H]3CC=C4[C@@H]5CC(C)(C)CC[C@]5(C(=O)O)CC[C@@]4(C)[C@]3(C)CC[C@H]2C1(C)C [ACETYL OLEANOLIC ACID]
IC50 [2]: 6800 nM

CC(C)(C)[C@H]1CC[C@H](CC2=C(O)C(=O)c3ccccc3C2=O)CC1 [BUPARVAQUONE]
IC50 [2]: 100 nM

C[C@H]1Cc2c([nH]c3cc(Cl)c(F)cc23)[C@@]2(N1)C(=O)Nc1ccc(Cl)cc12 [CIPARGAMIN]
IC50 ([7]; Huh-7): 1000 nM

O=c1[nH]c2cc(Cl)ccc2n1C1CCN(CCCC(c2ccc(F)cc2)c2ccc(F)cc2)CC1 [CLOPIMOZIDE]
IC50 [2]: 1800 nM

O=C(CC1NCCCC1O)Cn1cnc2cc(Br)c(Cl)cc2c1=O (centres undefined) [HALOFUGINONE]
EC50 [2]: 1.4 nM

OCCOCCN1CCN(C(c2ccccc2)c2ccc(Cl)cc2)CC1 (centres undefined) [HYDROXYZINE]
IC50 [2]: 1000 nM

C/C1=C\[C@H](C)C[C@H](C)OC(=O)C[C@H](c2ccc(O)cc2)NC(=O)[C@@H](Cc2c(Br)[nH]c3ccccc23)N(C)C(=O)[C@H](C)NC(=O)[C@@H](C)C1 [JASPAMIDE]
EC50 [12]: 30 to 300 nM

C=CC(C)(C)c1cc(/C=C/C(=O)c2ccc(O)cc2)c(OC)cc1O [LICOAGROCHACONE A]
IC50 [2]: 0.848 µg/mL

O=C(Nc1ccc([N+](=O)[O-])cc1Cl)c1cc(Cl)ccc1O [NICLOSAMIDE]
EC50 [2]: 0.0453 µg/mL

CC(=O)O[C@H]1CC[C@]2(C)[C@H]3CC=C4[C@@H]5[C@@H](C)[C@H](C)CC[C@]5(C(=O)O)CC[C@@]4(C)[C@]3(C)CC[C@H]2C1(C)C [O-ACETYLURSOLIC ACID]
IC50 [2]: 7900 nM

CC1(C)CC[C@]2(C(=O)O)CC[C@]3(C)C(=CC[C@@H]4[C@@]5(C)CC[C@H](O)C(C)(C)[C@@H]5CC[C@]43C)[C@@H]2C1 [OLEANOLIC_ACID]
IC50 [2]: 54800 nM

CC/C(=C(\c1ccccc1)c1ccc(OCCN(C)C)cc1)c1ccccc1 [TAMOXIFEN]
IC50 [2]: 1900 nM

Cc1coc2c1C(=O)C(=O)c1c-2ccc2c1CCCC2(C)C [TANSHINONE IIA]
IC50 [2]: 2500 nM

C[C@H]1[C@H](C)CC[C@]2(C(=O)O)CC[C@]3(C)C(=CC[C@@H]4[C@@]5(C)CC[C@H](O)C(C)(C)[C@@H]5CC[C@]43C)[C@H]12 [URSOLIC ACID]
IC50 [2]: 5900 nM

CCCOc1ccccc1-c1nc2[nH]nnc2c(=O)[nH]1 [ZAPRINAST]
IC50 [12]: 60000 nM
